# Like-named read-outs stand apart in the source and are kept apart here.
# Legend:
# [1] = system: normal human astrocytes (NHA); settings: read-out: IC50, cytotoxic effects; cited from earlier work
# [2] = system: porcine brain capillary endothelial cells (PBCEC)
# PBCEC monolayer [3] = system: PBCEC monolayer
# dendric cells = settings: cited from earlier work
# PBCEC monolayer [4] = format: cell-based, porcine
# Sprague-Dawley rats [5] = settings: rat, in vivo, po; cited from earlier work
# PBCEC monolayer [6] = settings: pig
# macrophages = settings: cited from earlier work
# PBCEC monolayer [7] = settings: pig; remark: listed apart in the source
# in vitro = settings: pig
# Sprague-Dawley rats [8] = settings: rat, in vivo, po; cited from earlier work; remark: listed apart in the source
# [9] = pig, in vivo; cited from earlier work
# [10] = pig, in vivo, 0.6 mg; cited from earlier work
smiles,measurement,setting,value
"CC(=O)OC[C@]12C[C@H](OC(=O)CC(C)C)C(C)=C[C@H]1O[C@@H]1[C@H](O)[C@@H](OC(C)=O)[C@@]2(C)[C@]12CO2 [T-2 toxin, reference compound]",IC50,[1],24 ± 4.5 nM
same,cellular viability,[2]; 10 µM,< 2%
"O=c1cc(O)c1=O [MON, moniliformin]","enrichment in one compartment / active transport, in words",PBCEC monolayer [3],not enriched in any compartment
same,concentration in the apical compartment,PBCEC monolayer [3]; pig,237 ± 23 nM
same,concentration in the basolateral compartment,PBCEC monolayer [3]; pig,228 ± 27 nM
same,reduction of cellular viability,dendric cells,20%
same,"change of electrical capacitance c CL, in words",PBCEC monolayer [4],"Neither 3-AcDON, nor MON showed significant changes"
same,relative TEER after 48 h,PBCEC monolayer [4],94±15%
same,administered dose detected in feces,Sprague-Dawley rats [5],2%
same,administered dose excreted via urine,Sprague-Dawley rats [5],20.2-31.5%
same,lowest observed adverse effect level (LOAEL),Sprague-Dawley rats [5],3 mg/kg body weight
same,amount detected in the basolateral compartment,PBCEC monolayer [6],27±6%
same,amount recovered in the apical compartment,PBCEC monolayer [6],76±12%
same,"effect on viability of macrophages, in words",macrophages,does not reduce the viability of macrophages
same,"p c(14C sucrose), sucrose permeability of the monolayer after mycotoxin incubation",PBCEC monolayer [7],0.19±0.05
same,Papp A→B,in vitro,1.07 ± 0.23 ×10⁻⁶ cm/s
same,LD50 cut-off value,Sprague-Dawley rats [8],25 mg/kg body weight
same,administered dose detected in urine,Sprague-Dawley rats [8],38%
same,total recovery in feces,Sprague-Dawley rats [8],less than 1%
same,total recovery in urine,Sprague-Dawley rats [8],42%
same,"effect on cellular viability, in words",[2],no significant effects on the cellular viability
"CC(=O)O[C@@H]1C[C@]2(C)[C@@]3(CO)[C@H](O)C(=O)C(C)=C[C@H]3O[C@H]1[C@@]21CO1 [3-AcDON, 3-acetyldeoxynivalenol]",concentration in the apical compartment,PBCEC monolayer [3]; pig,174 ± 20 nM
same,concentration in the basolateral compartment,PBCEC monolayer [3]; pig,198 ± 16 nM
same,"enrichment in one compartment / active transport, in words",PBCEC monolayer [3]; pig,an active transfer or a noteworthy enrichment of DON or 3-AcDON can be excluded
same,"change of electrical capacitance c CL, in words",PBCEC monolayer [4],"Neither 3-AcDON, nor MON showed significant changes"
same,relative TEER after 48 h,PBCEC monolayer [4],63±9%
same,"effect in CCK-8 assay (dehydrogenase activity), in words",[2],significant increase in dehydrogenase activity
"CC1=C[C@H]2O[C@@H]3[C@H](O)C[C@](C)([C@@]2(CO)[C@H](O)C1=O)[C@]31CO1 [DON, deoxynivalenol]","enrichment in one compartment / active transport, in words",PBCEC monolayer [3],no enrichment in the apical or the basolateral compartment was detected
same,concentration in the apical compartment,PBCEC monolayer [3]; pig,211 ± 15 nM
same,concentration in the basolateral compartment,PBCEC monolayer [3]; pig,199 ± 14 nM
same,electrical capacitance c CL after 48 h,PBCEC monolayer [4],81±2%
same,time of maximum concentration in CSF and blood,[9],4.5 h
same,systemic bioavailability,[10],48–65%
same,"effect in CCK-8 assay (dehydrogenase activity), in words",[2],significant increase in dehydrogenase activity
